In patent US10517889B2, “Modulators of SMAD7 expression” (Ionis Pharmaceuticals, Inc., priority 2017, dated 2019):
Strand notation (5' to 3'): a small letter for the sugar, then the base; units joined by * are phosphorothioate-linked, units joined directly phosphodiester-linked; [ ] holds rarer units or linkages, { } end groups; capitals alone tell only the bases. k = constrained ethyl (cEt); [5mC] = 5-methylcytosine; d = 2'-deoxy (DNA)

Assays:
mouse Smad7 mRNA [1] = assay: Murine Smad7 mRNA expression after subcutaneous administration in BALB/c mice (Example 10); format: in vivo; details: 50 mg/kg subcutaneous once a week for 4 weeks, 24 hours after last dose
Method: The objective of this study was to evaluate the efficacy of Ionis SMAD7 antisense oligonucleotides compared to ION 736697/Mongersen in BALB/c mice following 4 weeks of treatment. Both ION 830025 and ION 798781 are cross-reactive with mouse Smad7 mRNA.
Groups of BALB/c mice were subcutaneously administered 50 mg/kg of Ionis SMAD7 oligonucleotides once a week for 4 weeks. Each group contained 4 mice. One group of mice was administered PBS once a week for 4 weeks. […]

[2] = Tissue and organ histopathology after oral gavage in CD-1 mice (Example 7); format: in vivo; details: daily oral gavage 500 mg/kg for one month, in words
Method: Groups of 7-8 week old male CD-1 mice were given an oral gavage dose once daily for 4 weeks of 500 mg/kg of Ionis SMAD7 oligonucleotides. Each group contained 8 mice. One group of male CD-1 mice was administered saline by oral gavage daily.
Histopathology evaluations were performed on the mice treated with Ionis oligonucleotides to evaluate any tissue damage in the liver (with gallbladder), kidneys, heart, spleen, thymus, mesenteric lymph nodes, and different parts of the GI tract, including duodenum, ileum, and colon (proximal and distal). Tissues were collected and fixed in 10% neutral-buffered formalin, embedded in paraffin, sectioned, and stained with hematoxylin and eosin. All the tissues were histologically unremarkable in all mice.

[3] = Organ weights after oral gavage in beagle dogs (Example 12); details: 200 mg by oral gavage for 4 weeks, day 30, in words
Method: (§1) Groups of 24-25 week old male beagle dogs were administered 200 mg Ionis human SMAD7 oligonucleotide by oral gavage once a week for 4 weeks. There were 4 animals per group. A control group of dogs received oral administration of distilled water. Dogs were sacrificed on day 30 approximately 48 hours after the final dose and organs and plasma were harvested for further analysis.

[4] = Plasma chemistry markers after subcutaneous administration in beagle dogs (Example 8); details: 30 mg/kg subcutaneously, day 31, in words
Method: Groups of 24-25 week old male beagle dogs were injected subcutaneously with 30 mg/kg ION Ionis oligonucleotide. There were 4 animals per group. Dogs were injected every two days for the first week (day 1, 3, and 5) and once weekly thereafter (days 8, 15, 22, and 29). A control group of dogs received subcutaneous injections of PBS. Dogs were sacrificed on day 31 approximately 48 hours after the final dose and organs and plasma were harvested for further analysis.
To evaluate the effect of Ionis SMAD7 oligonucleotides on liver and kidney function, plasma levels of transaminases, albumin, creatine and BUN were measured using an automated clinical chemistry analyzer (Toshiba 200FR Neo chemistry analyzer, Toshiba Co., Japan).

murine Smad7 mRNA = assay: Dose-dependent inhibition of murine Smad7 mRNA in bEND cells, electroporation (Example 5, Study 2); format: cell-based, mouse; details: in words
Method: Many of the Ionis designed oligonucleotides as well as ION 736697/Mongersen are complementary to mouse Smad7 mRNA. […] After a treatment period of approximately 16 hours, the cells were washed and lyzed and RNA on 384-well Pall plates with DNase I treatment. Smad7 mRNA levels were measured by quantitative real-time PCR. Primer probe set RTS1114 (forward sequence […], designated herein as SEQ ID NO: 8; reverse sequence […], designated herein as SEQ ID NO: 9; probe sequence […], designated herein as SEQ ID NO: 10) was used to measure murine Smad7 mRNA levels. Smad7 mRNA levels were adjusted according to total RNA content, as measured by RIBOGREEN®. Results are presented as percent inhibition of Smad7 mRNA expression, relative to untreated control cells.
Many of the Ionis oligonucleotides had greater potency than ION 736697/Mongersen.

[5] = Plasma chemistry markers after oral gavage in beagle dogs (Example 12); details: 200 mg by oral gavage for 4 weeks, day 30, in words
Method: The study was conducted to evaluate the tolerability and pharmacodynamics of select human SMAD7 antisense oligonucleotides in beagle dogs following 4 weeks of treatment. The dogs were administered oligonucleotides by oral gavage.
as §1
To evaluate the effect of Ionis SMAD7 oligonucleotides on liver and kidney function, approximately 1.5 mL of blood samples were collected and put into tubes without anticoagulant for serum separation. The tubes were kept at room temperature for a minimum of 90 min and then centrifuged (approximately 3,000 rpm for 10 min) to obtain serum. Plasma levels of transaminases, albumin, bilirubin, and BUN were measured using an automated clinical chemistry analyzer (Toshiba 200FR Neo chemistry analyzer, Toshiba Co., Japan).

human SMAD7 mRNA = assay: Dose-dependent inhibition of human SMAD7 mRNA expression in A431 cells, oligonucleotide added without transfection (Example 5, Study 1); format: cell-based; details: SMAD7 mRNA, in words
Method: The newly designed compounds disclosed herein are cEt-modified antisense oligonucleotides. […] The studies described below show a comparison of select cEt-modified gapmers and ION0736697/Mongersen.
A431 cells were plated in collagen I-coated 96-well plates in DMEM with […]. Immediately after plating, 0.08 μM, 0.25 μM, 0.74 μM, 2.22 μM, 6.67 μM, or 20.00 μM concentrations of antisense oligonucleotide were added. The plates were shaken briefly before incubating at 37° C. and 10% CO2. After a treatment period of approximately 48 hours, the cells were washed and lyzed and RNA on 384-well Pall plates with DNase I treatment. SMAD7 mRNA levels were measured by quantitative real-time PCR. Primer probe set RTS5062 was used to measure human SMAD7 mRNA levels. SMAD7 mRNA levels were adjusted according to total RNA content, as measured by RIBOGREEN®. Results are presented as percent inhibition of SMAD7 mRNA expression, relative to untreated control cells.
All Ionis oligonucleotides had greater potency than ION 736697/Mongersen.

[6] = Pharmacokinetics: oligonucleotide concentration in tissues after oral gavage in beagle dogs (Example 12); format: in vivo; details: for Tissue accumulation of oligonucleotide: 200 mg by oral gavage for 4 weeks, in words
Method: There were 4 animals per group.
Canine tissue exposure following oral administration of the Ionis SMAD7 oligonucleotides was measured in various organs and intestinal tissues.
Plasma concentrations of Ionis oligonucleotides were also measured on Day 28 at various time points.

mouse Smad7 mRNA [7] = assay: Murine Smad7 mRNA expression after oral administration in BALB/c mice (Example 11); format: in vivo; details: orally 500 mg/kg/day for 3 weeks, in words
Method: The objective of this study was to evaluate the efficacy of Ionis SMAD7 antisense oligonucleotides in BALB/c mice following daily oral administration. The Ionis oligonucleotides are cross-reactive with mouse Smad7 mRNA.
Groups of BALB/c mice were orally administered 500 mg/kg/day for 3 weeks of human Smad7 oligonucleotides, ION 790615, ION 798781, or ION 830025, or mouse Smad7 oligonucleotide, ION 772797 (a 3-10-3 cEt gapmer with phosphorothioate backbone and sequence […]; designated herein as SEQ ID NO: 2743). One group of mice was orally administered PBS daily for 3 weeks. Each group contained 4 mice.
To evaluate the efficacy of the oligonucleotides, murine Smad7 mRNA expression in the liver, kidneys, duodenum, ileum, and colon was measured using primer probe set RTS1114.

mouse Smad7 mRNA [8] = assay: Pharmacology: mouse Smad7 mRNA expression in liver, kidney, duodenum, ileum and colon after subcutaneous administration in CD-1 mice (Example 6); format: in vivo; details: 50 mg/kg subcutaneously twice a week for 7 weeks, in words
Method: Groups of 8-9 week old male CD-1 mice were injected subcutaneously twice a week for 7 weeks with 50 mg/kg of Ionis oligonucleotides (100 mg/kg/week dose). Each group contained 4 mice. One group of male CD-1 mice was injected subcutaneously twice a week for 7 weeks with PBS. Plasma was collected for analysis on day 28.
The pharmacological activity of the Ionis oligonucleotides in mice was assessed by measuring mouse Smad7 mRNA expression in liver, kidney, duodenum, ileum, and colon at necropsy.
Tissue samples from all mice were analyzed for Smad7 mRNA expression using the primer probe set HTS7555 (forward sequence […], designated SEQ ID NO: 2737; reverse sequence […], designated SEQ ID NO: 2738; probe sequence […], designated SEQ ID NO: 2739), which was normalized to mRNA levels of the housekeeping gene, GAPDH. One-way ANOVA with Dunnet's comparison test was used for statistical analysis.

[9] = system: human peripheral blood mononuclear cells (PBMCs); assay: Human PBMC activation assay, cytokine levels (IL-10, IL-6, MCP-1, TNF-α) in supernatant after 24 hours (Example 9); details: human PBMCs, 24 hours, in words
Method: Ionis SMAD7 oligonucleotides were tested in an in vitro assay for potential immunostimulatory properties in an in vitro human peripheral blood mononuclear cell (PBMC) activation assay.
Blood samples were collected from healthy human volunteers in heparinized vials and mixed well. Human PBMCs were isolated by gradient centrifugation using Ficoll-Histopaque. The cells were washed, counted and resuspended in medium. The PBMCs were plated in a 24-well culture plate and various concentrations of oligonucleotides were added to the media. An oligonucleotide historically known to promote an inflammatory response was used as a positive control, whereas an oligonucleotide known not to be pro-inflammatory was used as a negative control. […] The supernatants were collected after 24 hours and analyzed for cytokine levels using MSD platform.

Row | Substance | Mouse Smad7 mRNA expression (% inhibition), Colon (mouse Smad7 mRNA [1]) [% inhibition] | Mouse Smad7 mRNA expression (% inhibition), Duodenum (mouse Smad7 mRNA [1]) [% inhibition] | Mouse Smad7 mRNA expression (% inhibition), Ileum (mouse Smad7 mRNA [1]) [% inhibition] | Mouse Smad7 mRNA expression (% inhibition), Kidney (mouse Smad7 mRNA [1]) [% inhibition] | Mouse Smad7 mRNA expression (% inhibition), Liver (mouse Smad7 mRNA [1]) [% inhibition] | Histopathology: oligonucleotide-related tissue alterations [2] | Tolerability (organ weights) [3] | Tolerability (plasma chemistry markers) [4] | Potency compared with ION 736697/Mongersen (murine Smad7 mRNA) | Tolerability (plasma chemistry markers) [5] | Potency/efficacy compared with ION 736697/Mongersen (human SMAD7 mRNA) | Tissue accumulation of oligonucleotide [6] | Oligonucleotide concentration in tissues, Duodenum ([6]; 200 mg oral gavage for 4 weeks) [µg/g] | Oligonucleotide concentration in tissues, Ileum ([6]; 200 mg oral gavage for 4 weeks) [µg/g] | Oligonucleotide concentration in tissues, Kidney ([6]; 200 mg oral gavage for 4 weeks) [µg/g] | Oligonucleotide concentration in tissues, Liver ([6]; 200 mg oral gavage for 4 weeks) [µg/g] | Oligonucleotide concentration in tissues, Proximal colon ([6]; 200 mg oral gavage for 4 weeks) [µg/g] | other results
1 | ION 790615: 3-10-3 (S)-cEt gapmer targeting human SMAD7; top lead compound (k[5mC]*k[5mC]*kA*dA*dT*dG*dA*dG*dA*dA*dT*dG*d[5mC]*kT*kT*k[5mC]) | 71 | 39 | 41 | 28 | 47 | not associated with any antisense oligonucleotide-related tissue alterations |  |  |  |  |  |  |  |  |  |  |  | 
2 | ION 798781 (CGTAAGATTCACAGCA; 3-10-3 cEt gapmer, further chemistry not given here) | 41 | 27 | 22 | 11 | 36 | not associated with any antisense oligonucleotide-related tissue alterations | very well tolerated | well tolerated | more potent than ION 736697/Mongersen | very well tolerated | more efficacious than ION 736697/Mongersen | higher accumulation in the liver and kidneys | 0.6 | 0.5 | 108.1 | 12.9 | 0.1 | 
3 | ION 830025 (antisense TTTGTAAATCGAAAGC; 3-10-3 cEt gapmer, phosphorothioate, further chemistry not given here) [sodium salt] | 32 | 26 | 14 | 5 | 46 | not associated with any antisense oligonucleotide-related tissue alterations | very well tolerated | well tolerated | more potent than ION 736697/Mongersen | very well tolerated | more efficacious than ION 736697/Mongersen | Distal colon accumulation was detected | 0.8 | 0.3 | 48.1 | 7.8 | 0.2 | Efficacy in reducing Smad7 mRNA expression (mouse Smad7 mRNA [7]): efficacious in reducing Smad7 mRNA expression; Smad7 mRNA reduction in tissues (mouse Smad7 mRNA [8]): significant Smad7 mRNA reduction in various tissues; Cytokine and chemokine production (immunostimulatory profile) [9]: minimal cytokine and chemokine production which was similar or less than the negative control ASO; Oligonucleotide concentration in tissues, Distal colon ([6]; 200 mg oral gavage for 4 weeks, distal colon): 0.1 µg/g
